Results taken from ChEMBL document CHEMBL4387737, “Synthesis of Isosteviol analogues as potential protective agents against Doxorubicin-induced cardiomyopathy in zebrafish embryos” (Bioorg Med Chem Lett, 2019).
Active and inactive are the calls of the source. The rule behind the calls is not given here.

Columns and labels:
Danio rerio [1] = assay: Cardioprotective activity in myl7:EGFP transgenic zebra fish embryo assessed as decrease in DOX-induced cardiac dysfunction at 100 uM dosed at 24 hpf and measured 72 hpf by fluorescent microscopy; assay type: functional, organism-based
Danio rerio [2] = assay: Cardioprotective activity in myl7:EGFP transgenic zebra fish embryo assessed as decrease in DOX-induced morphological changes at 100 uM dosed at 24 hpf and measured 72 hpf by fluorescent microscopy; assay type: functional, organism-based
Danio rerio [3] = assay: Cardioprotective activity in myl7:EGFP transgenic zebra fish embryo assessed as recovery of in DOX-induced shortening fraction at 100 uM dosed at 24 hpf and measured 72 hpf by fluorescent microscopy; assay type: functional, organism-based
Danio rerio [4] = assay: Cardioprotective activity in myl7:EGFP transgenic zebra fish embryo assessed as decrease in DOX-induced pericardial edema at 100 uM dosed at 24 hpf and measured 72 hpf by fluorescent microscopy; assay type: functional, organism-based
Danio rerio [5] = assay: Cardioprotective activity in myl7:EGFP transgenic zebra fish embryo assessed as recovery of in DOX-induced heart rate impairment at 100 uM dosed at 24 hpf and measured 72 hpf by fluorescent microscopy; assay type: functional, organism-based
[6] = Toxicity in myl7:EGFP transgenic zebra fish embryo assessed as reduction in survival rate at 25 to 100 uM dosed at 24 hpf and measured 96 hpf; assay type: organism-based, Danio rerio; details: zebrafish, in vivo
Danio rerio [7] = assay: Cytoprotection in myl7:EGFP transgenic zebra fish embryo assessed as reduction in DOX-induced lethal toxicity by measuring LC50 dosed at 24 hpf and measured 96 hpf (reference value: 51.56 uM); assay type: functional
[8] = Toxicity in myl7:EGFP transgenic zebra fish embryo assessed as reduction in survival rate dosed at 24 hpf and measured 96 hpf; assay type: organism-based, Danio rerio; details: zebrafish, in vivo

SMILES | Activity (Danio rerio [1]) | Activity (Danio rerio [2]) | Activity (Danio rerio [3]) | Activity (Danio rerio [4]) | Activity (Danio rerio [5]) | Activity [6] | LC50 (Danio rerio [7]) | LD [8] | Activity (Danio rerio [7])
C[C@]12CC[C@H]3[C@]4(C)CCC[C@@](C)(C(=O)O)[C@H]4CC[C@@]3(C1)[C@H](C=O)C2=O | inactive | inactive | inactive | inactive | inactive | Non-Toxic |  |  | 
C[C@]12CC[C@H]3[C@]4(C)CCC[C@@](C)(C(=O)O)[C@H]4CC[C@@]3(C1)[C@H](CO)[C@H]2O | Active | Active | Active | Active | Active | Non-Toxic | 68.5 µM |  | 
C[C@@]12CC[C@@H]3[C@@](CC[C@H]4[C@@]3(C)CCC[C@@]4(C)C(=O)OCCCCCCCC(=O)O)(C[C@H]1O)C2 |  |  |  |  |  |  |  | 50 to 100 µM | inactive
C[C@]12CC[C@H]3[C@]4(C)CCC[C@@](C)(C(=O)O)[C@H]4CC[C@@]3(C1)[C@H](C(=O)O)[C@H]2O | Active | Active | Active | Active | Active | Non-Toxic | 66.62 µM |  | 
C[C@]12CC[C@H]3[C@]4(C)CCC[C@@](C)(C(=O)O)[C@H]4CC[C@@]3(C1)[C@H](CO)C2=O | inactive | inactive | inactive | inactive | inactive | Non-Toxic | 74.83 µM |  | 
C[C@@]12CC[C@@H]3[C@@](CC[C@H]4[C@@]3(C)CCC[C@@]4(C)C(=O)OCCCCCC(=O)O)(C[C@H]1O)C2 |  |  |  |  |  |  |  | 50 to 100 µM | inactive
C[C@]12CC[C@H]3[C@]4(C)CCC[C@@](C)(C(=O)O)[C@H]4CC[C@@]3(C1)[C@H](C=O)[C@H]2O | Active | Active | Active | Active | Active | Non-Toxic | 92.61 µM |  | 
C[C@@]12CC[C@@H]3[C@@](CC[C@H]4[C@@]3(C)CCC[C@@]4(C)C(=O)OCCO)(C[C@H]1O)C2 |  |  |  |  |  |  |  |  | inactive
C[C@@]12CC[C@@H]3[C@@](CC[C@H]4[C@@]3(C)CCC[C@@]4(C)C(=O)OCCCCCCCCO)(C[C@H]1O)C2 |  |  |  |  |  |  |  | 50 to 100 µM | inactive
C[C@@]12CC[C@@H]3[C@@](CC[C@H]4[C@@]3(C)CCC[C@@]4(C)C(=O)OCCCCCCO)(C[C@H]1O)C2 |  |  |  |  |  |  |  | 50 to 100 µM | inactive
